In PubChem BioAssay AID2060611 (Molecular Pharmacology Branch, DTP, NCI, 2025):
pIC50: −log10 of the molar value.

Tested on: 628569-122-R-J1-PDC complex spheroid viability
Assay: Anticancer human tumor 628569-122-R-J1-PDC patient-derived head and neck squamous carcinoma cell line growth inhibition [CLK]
Conditions: for pIC50: curve of first compound; for viability, T/C: stronger effect = lower value
In short: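 Patient-derived tumor cells grown as complex spheroids with HUVEC endothelial cells and mesenchymal stem cells, treated with drug combinations. Concentrations descend in half-log steps from near clinical Cmax, or from 10 microM if Cmax unknown.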

[1] = second compound 0.0316 µM, first compound 0.0316 µM
[2] = second compound 0.0316 µM, first compound 0.1 µM
[3] = second compound 0.0316 µM, first compound 0.316 µM
[4] = second compound 0.0316 µM, first compound 1 µM
[5] = second compound 0.0316 µM, first compound 3.16 µM
[6] = second compound 0.0316 µM, first compound 10 µM
[7] = second compound 0.1 µM, first compound 0.0316 µM
[8] = second compound 0.1 µM, first compound 0.1 µM
[9] = second compound 0.1 µM, first compound 0.316 µM
[10] = second compound 0.1 µM, first compound 1 µM
[11] = second compound 0.1 µM, first compound 3.16 µM
[12] = second compound 0.1 µM, first compound 10 µM
[13] = second compound 0.316 µM, first compound 0.0316 µM
[14] = second compound 0.316 µM, first compound 0.1 µM
[15] = second compound 0.316 µM, first compound 0.316 µM
[16] = second compound 0.316 µM, first compound 1 µM
[17] = second compound 0.316 µM, first compound 3.16 µM
[18] = second compound 0.316 µM, first compound 10 µM
[19] = second compound 1 µM, first compound 0.0316 µM
[20] = second compound 1 µM, first compound 0.1 µM
[21] = second compound 1 µM, first compound 0.316 µM
[22] = second compound 1 µM, first compound 1 µM
[23] = second compound 1 µM, first compound 3.16 µM
[24] = second compound 1 µM, first compound 10 µM
[25] = second compound 3.16 µM, first compound 0.0316 µM
[26] = second compound 3.16 µM, first compound 0.1 µM
[27] = second compound 3.16 µM, first compound 0.316 µM
[28] = second compound 3.16 µM, first compound 1 µM
[29] = second compound 3.16 µM, first compound 3.16 µM
[30] = second compound 3.16 µM, first compound 10 µM
[31] = second compound 10 µM, first compound 0.0316 µM
[32] = second compound 10 µM, first compound 0.1 µM
[33] = second compound 10 µM, first compound 0.316 µM
[34] = second compound 10 µM, first compound 1 µM
[35] = second compound 10 µM, first compound 3.16 µM
[36] = second compound 10 µM, first compound 10 µM
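Also: spheroids exposed to agents for seven days before readout.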
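For viability, T/C in this document: 100% = DMSO vehicle control viability.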

O=c1[nH]cc(F)c(=O)[nH]1 + CN1CCN(c2cc(C(=O)Nc3cc4cc(-c5cnn(C)c5)ccc4cn3)ccn2)CC1
pIC50 (second compound 0.0316 µM): < 5.00
pIC50 (second compound 0.1 µM): < 5.00
pIC50 (second compound 0.316 µM): > 7.50
pIC50 (second compound 1 µM): > 7.50
pIC50 (second compound 3.16 µM): > 7.50
pIC50 (second compound 10 µM): > 7.50
viability, T/C [1]: 84.2%
viability, T/C [2]: 97.8%
viability, T/C [3]: 93.7%
viability, T/C [4]: 102%
viability, T/C [5]: 88.8%
viability, T/C [6]: 69.3%
viability, T/C [7]: 64.1%
viability, T/C [8]: 69.9%
viability, T/C [9]: 70.5%
viability, T/C [10]: 71.6%
viability, T/C [11]: 64.8%
viability, T/C [12]: 54.7%
viability, T/C [13]: 35.7%
viability, T/C [14]: 30.7%
viability, T/C [15]: 37.5%
viability, T/C [16]: 44.7%
viability, T/C [17]: 38.3%
viability, T/C [18]: 29.8%
viability, T/C [19]: 12.8%
viability, T/C [20]: 6.16%
viability, T/C [21]: 6.71%
viability, T/C [22]: 8.95%
viability, T/C [23]: 7.13%
viability, T/C [24]: 5.19%
viability, T/C [25]: 9.61%
viability, T/C [26]: 7.33%
viability, T/C [27]: 9.99%
viability, T/C [28]: 8.76%
viability, T/C [29]: 12%
viability, T/C [30]: 4.06%
viability, T/C [31]: 11%
viability, T/C [32]: 2.54%
viability, T/C [33]: 4.42%
viability, T/C [34]: 2.63%
viability, T/C [35]: 2.63%
viability, T/C [36]: 3.59%

CCCS(=O)(=O)Nc1ccc(F)c(C(=O)c2c[nH]c3ncc(-c4ccc(Cl)cc4)cc23)c1F + CN1CCN(c2cc(C(=O)Nc3cc4cc(-c5cnn(C)c5)ccc4cn3)ccn2)CC1
pIC50 (second compound 0.0316 µM): < 5.00
pIC50 (second compound 0.1 µM): < 5.00
pIC50 (second compound 0.316 µM): > 7.50
pIC50 (second compound 1 µM): > 7.50
pIC50 (second compound 3.16 µM): > 7.50
pIC50 (second compound 10 µM): > 7.50
viability, T/C [1]: 121%
viability, T/C [2]: 94.7%
viability, T/C [3]: 87.2%
viability, T/C [4]: 87.9%
viability, T/C [5]: 91.7%
viability, T/C [6]: 104%
viability, T/C [7]: 70.8%
viability, T/C [8]: 72.7%
viability, T/C [9]: 68.9%
viability, T/C [10]: 80.9%
viability, T/C [11]: 86.6%
viability, T/C [12]: 93.5%
viability, T/C [13]: 37.9%
viability, T/C [14]: 36.1%
viability, T/C [15]: 37.9%
viability, T/C [16]: 46.5%
viability, T/C [17]: 46.4%
viability, T/C [18]: 44.5%
viability, T/C [19]: 5.76%
viability, T/C [20]: 9.94%
viability, T/C [21]: 5.5%
viability, T/C [22]: 5.99%
viability, T/C [23]: 5.05%
viability, T/C [24]: 5.13%
viability, T/C [25]: 5.86%
viability, T/C [26]: 6.15%
viability, T/C [27]: 6.62%
viability, T/C [28]: 4.48%
viability, T/C [29]: 5.63%
viability, T/C [30]: 8.05%
viability, T/C [31]: 5.01%
viability, T/C [32]: 2.99%
viability, T/C [33]: 2.11%
viability, T/C [34]: 1.75%
viability, T/C [35]: 1.53%
viability, T/C [36]: 1.67%

CCN1CCN(Cc2ccc(Nc3ncc(F)c(-c4cc(F)c5nc(C)n(C(C)C)c5c4)n3)nc2)CC1 + CNC(=O)c1ccc(Nc2nc(OC3CCCC3)c3c(-c4ccc5nc(C)oc5c4)c[nH]c3n2)c(OC)c1
pIC50 (second compound 0.0316 µM): < 6.00
pIC50 (second compound 0.1 µM): < 6.00
pIC50 (second compound 0.316 µM): < 6.00
pIC50 (second compound 1 µM): > 8.50
pIC50 (second compound 3.16 µM): > 8.50
pIC50 (second compound 10 µM): > 8.50
viability, T/C (second compound 0.0316 µM, first compound 0.00316 µM): 81.5%
viability, T/C (second compound 0.0316 µM, first compound 0.01 µM): 94.4%
viability, T/C [1]: 76.3%
viability, T/C [2]: 67.7%
viability, T/C [3]: 98.7%
viability, T/C [4]: 155%
viability, T/C (second compound 0.1 µM, first compound 0.00316 µM): 58.5%
viability, T/C (second compound 0.1 µM, first compound 0.01 µM): 64%
viability, T/C [7]: 56.4%
viability, T/C [8]: 61.7%
viability, T/C [9]: 108%
viability, T/C [10]: 137%
viability, T/C (second compound 0.316 µM, first compound 0.00316 µM): 57.6%
viability, T/C (second compound 0.316 µM, first compound 0.01 µM): 55.6%
viability, T/C [13]: 51.7%
viability, T/C [14]: 61%
viability, T/C [15]: 95.3%
viability, T/C [16]: 135%
viability, T/C (second compound 1 µM, first compound 0.00316 µM): 45.5%
viability, T/C (second compound 1 µM, first compound 0.01 µM): 49.2%
viability, T/C [19]: 50.7%
viability, T/C [20]: 63%
viability, T/C [21]: 92.6%
viability, T/C [22]: 122%
viability, T/C (second compound 3.16 µM, first compound 0.00316 µM): 48.2%
viability, T/C (second compound 3.16 µM, first compound 0.01 µM): 55.7%
viability, T/C [25]: 57.1%
viability, T/C [26]: 49.6%
viability, T/C [27]: 82.9%
viability, T/C [28]: 97.9%
viability, T/C (second compound 10 µM, first compound 0.00316 µM): 46.1%
viability, T/C (second compound 10 µM, first compound 0.01 µM): 38.8%
viability, T/C [31]: 46.1%
viability, T/C [32]: 49.3%
viability, T/C [33]: 76.4%
viability, T/C [34]: 99.2%
